{"source": "patent US9457033B2", "about": "“Steroid alkaloids and uses thereof as antimicrobial agents against electron transport-deficient microbes and as potentiators for antimicrobial agents against pathogenic bacteria” (priority 2011, dated 2016)", "format_in_all_cases": "cell-based, Staphylococcus aureus", "key": {"S. aureus ATCC 29213 [1]": {"system": "S. aureus ATCC 29213", "test": "MIC, microdilution in CAMHB 24 h, with or without tomatidine/compound", "conditions": "for MIC: Staphylococcus aureus"}, "S. aureus ATCC 29213 [2]": {"system": "S. aureus ATCC 29213", "test": "Checkerboard assay, aminoglycoside and tomatidine", "conditions": "for MIC: Staphylococcus aureus, ATCC29213, checkerboard", "method": "This checkerboard protocol (Eliopoulos and Moellering, 1996) was conducted by a microdilution method similar to that use for standard MICs determination. In 96 wells plates, antibiotics were loaded at a 4× concentration (where X is the maximal tested concentration) in well A1 and at a 2× concentration in the others wells of the column 1. Antibiotics were serially diluted 1:1 from the column 2 to column 10. […] Wells A12, B12, […] are positive untreated controls whereas wells […] are negative non-inoculated controls. […] The FIC index was calculated as follow (Eliopoulos and Moellering, 1996): FIC […]/MICB, where A and B are MICs of compounds A and B in combination and where MICA and MICB are the MICs of compound A alone and of compound B alone, respectively, and FICA and FICB are the FICs of compound A and of compound B, respectively."}, "S. aureus 8325-4": {"system": "S. aureus 8325-4", "test": "MIC, microdilution in CAMHB 24 h", "conditions": "8325-4; for MIC: Staphylococcus aureus, 83254"}, "S. aureus Newbould": {"system": "S. aureus Newbould", "test": "MIC, microdilution in CAMHB 24 h", "conditions": "Newbould; for MIC: Staphylococcus aureus"}, "S. aureus SHY97-3906": {"system": "S. aureus SHY97-3906", "test": "MIC, microdilution in CAMHB 24 h", "conditions": "for MIC: Staphylococcus aureus, SHY973906"}, "S. aureus ATCC 43300": {"system": "S. aureus ATCC 43300", "test": "MIC, microdilution in CAMHB 24 h", "conditions": "ATCC 43300; for MIC: Staphylococcus aureus"}, "S. aureus N315": {"system": "S. aureus N315", "test": "microbe, parasite or virus in culture", "conditions": "for MIC: Staphylococcus aureus"}, "S. aureus MA078038": {"system": "S. aureus MA078038", "test": "MIC, microdilution in CAMHB 24 h", "conditions": "for MIC: Staphylococcus aureus, MA078038, aph(3′)-IIIa"}, "[3]": {"conditions": "8 μg/ml of tomatidine, read-out: MIC +TO"}, "[4]": {"conditions": "absence of tomatidine, read-out: MIC −TO"}}, "note": "Where two headings read alike, the source gives them in different places.", "data": [{"compound": "NC[C@H]1O[C@H](O[C@H]2[C@H](O)[C@@H](O[C@H]3O[C@H](CO)[C@@H](O)[C@H](N)[C@H]3O)[C@H](N)C[C@@H]2N)[C@H](N)C[C@@H]1O", "note": "[Tobramycin, tobramycin]", "values": [{"measurement": "Fold (−TO/+TO)", "setting": "S. aureus ATCC 29213 [1]; ATCC 29123, 8 μg/ml of tomatidine", "value": "4-16 fold"}, {"measurement": "Fold (−TO/+TO)", "setting": "S. aureus ATCC 29213 [1]; ATCC 29213, tomatidine at 8 μg/ml", "value": "4-8 fold"}, {"measurement": "MIC", "setting": "S. aureus ATCC 29213 [1]; ATCC 29123 / ATCC 29213, ATCC 29123, 8 μg/ml of tomatidine, read-out: MIC +TO", "value": "0.03 to 0.06", "unit": "µg/mL"}, {"measurement": "MIC", "setting": "S. aureus ATCC 29213 [1]; ATCC 29123 / ATCC 29213, ATCC 29123, absence of tomatidine, read-out: MIC −TO", "value": "0.25 to 0.5", "unit": "µg/mL"}, {"measurement": "MIC", "setting": "S. aureus ATCC 29213 [1]; ATCC29213, ATCC 29213, Human (SSTI), read-out: MIC", "value": "0.25 to 0.5", "unit": "µg/mL"}, {"measurement": "MIC", "setting": "S. aureus ATCC 29213 [1]; ATCC29213, ATCC 29213, absence of tomatidine, read-out: MIC −TO", "value": "0.25 to 0.5", "unit": "µg/mL"}, {"measurement": "MIC", "setting": "S. aureus ATCC 29213 [1]; ATCC29213, ATCC 29213, presence of tomatidine at 8 μg/ml, read-out: MIC +TO", "value": 0.06, "unit": "µg/mL"}, {"measurement": "MIC", "setting": "S. aureus ATCC 29213 [2]; tomatidine 0 μg/ml", "value": "0.25 to 0.5", "unit": "µg/mL"}, {"measurement": "MIC", "setting": "S. aureus ATCC 29213 [2]; tomatidine 0.06 μg/ml", "value": 0.25, "unit": "µg/mL"}, {"measurement": "MIC", "setting": "S. aureus ATCC 29213 [2]; tomatidine 0.12 μg/ml", "value": "0.03 to 0.12", "unit": "µg/mL"}, {"measurement": "MIC", "setting": "S. aureus ATCC 29213 [2]; tomatidine 0.25 μg/ml", "value": "0.03 to 0.06", "unit": "µg/mL"}, {"measurement": "MIC", "setting": "S. aureus ATCC 29213 [2]; tomatidine 0.5 μg/ml", "value": 0.03, "unit": "µg/mL"}, {"measurement": "MIC", "setting": "S. aureus ATCC 29213 [2]; tomatidine 1 μg/ml", "value": "0.03 to 0.06", "unit": "µg/mL"}, {"measurement": "MIC", "setting": "S. aureus ATCC 29213 [2]; tomatidine 2 μg/ml", "value": "0.03 to 0.06", "unit": "µg/mL"}, {"measurement": "MIC", "setting": "S. aureus ATCC 29213 [2]; tomatidine 4 μg/ml", "value": "0.03 to 0.06", "unit": "µg/mL"}, {"measurement": "MIC", "setting": "S. aureus ATCC 29213 [2]; tomatidine 8 μg/ml", "value": 0.06, "unit": "µg/mL"}, {"measurement": "FIC index", "setting": "S. aureus ATCC 29213 [2]; aminoglycoside with tomatidine, tomatidine MIC considered 32 μg/ml, values overestimated", "value": "≦0.133"}, {"measurement": "Fold (−TO/+TO)", "setting": "S. aureus 8325-4; 8 μg/ml of tomatidine", "value": 4, "unit": "fold"}, {"measurement": "MIC", "setting": "S. aureus 8325-4; [3]", "value": "0.03 to 0.06", "unit": "µg/mL"}, {"measurement": "MIC", "setting": "S. aureus 8325-4; Laboratory strain, read-out: MIC", "value": "0.12 to 0.25", "unit": "µg/mL"}, {"measurement": "MIC", "setting": "S. aureus 8325-4; [4]", "value": "0.12 to 0.25", "unit": "µg/mL"}, {"measurement": "Fold (−TO/+TO)", "setting": "S. aureus Newbould; 8 μg/ml of tomatidine", "value": 8, "unit": "fold"}, {"measurement": "MIC", "setting": "S. aureus Newbould; [3]", "value": "0.06 to 0.12", "unit": "µg/mL"}, {"measurement": "MIC", "setting": "S. aureus Newbould; Cow (mastitis), read-out: MIC", "value": "0.5 to 1", "unit": "µg/mL"}, {"measurement": "MIC", "setting": "S. aureus Newbould; [4]", "value": "0.5 to 1", "unit": "µg/mL"}, {"measurement": "Fold (−TO/+TO)", "setting": "S. aureus SHY97-3906; SHY-3906, 8 μg/ml of tomatidine", "value": 8, "unit": "fold"}, {"measurement": "MIC", "setting": "S. aureus SHY97-3906; SHY97-3906, Cow (mastitis), read-out: MIC", "value": 0.25, "unit": "µg/mL"}, {"measurement": "MIC", "setting": "S. aureus SHY97-3906; SHY-3906, 8 μg/ml of tomatidine, read-out: MIC +TO", "value": 0.03, "unit": "µg/mL"}, {"measurement": "MIC", "setting": "S. aureus SHY97-3906; SHY-3906, absence of tomatidine, read-out: MIC −TO", "value": 0.25, "unit": "µg/mL"}, {"measurement": "Fold (−TO/+TO)", "setting": "S. aureus ATCC 43300; 8 μg/ml of tomatidine", "value": "4-8 fold"}, {"measurement": "MIC", "setting": "S. aureus ATCC 43300; ATCC 43300 / MRSA, Human (HA), MRSA, read-out: MIC", "value": "512 to 1020", "unit": "µg/mL"}, {"measurement": "MIC", "setting": "S. aureus ATCC 43300; ATCC43300, 8 μg/ml of tomatidine, read-out: MIC +TO", "value": 128, "unit": "µg/mL"}, {"measurement": "MIC", "setting": "S. aureus ATCC 43300; ATCC43300, absence of tomatidine, read-out: MIC −TO", "value": "512 to 1020", "unit": "µg/mL"}, {"measurement": "Fold (−TO/+TO)", "setting": "S. aureus N315; N315, 8 μg/ml of tomatidine", "value": "2-4 fold"}, {"measurement": "MIC", "setting": "S. aureus N315; MRSA", "value": 512, "unit": "µg/mL"}, {"measurement": "MIC", "setting": "S. aureus N315; N315, read-out: MIC +TO", "value": "128 to 256", "unit": "µg/mL"}, {"measurement": "MIC", "setting": "S. aureus N315; N315, read-out: MIC −TO", "value": 512, "unit": "µg/mL"}, {"measurement": "Fold (−TO/+TO)", "setting": "S. aureus MA078038; MA078038, 8 μg/ml of tomatidine", "value": "4-8 fold"}, {"measurement": "MIC", "setting": "S. aureus MA078038; [3]", "value": "0.06 to 0.12", "unit": "µg/mL"}, {"measurement": "MIC", "setting": "S. aureus MA078038; [4]", "value": 0.5, "unit": "µg/mL"}]}]}
